≈ marks a conversion by molar mass, not a printed value.
Tests used:
[1] = tested on: Moraxella catarrhalis; assay: Antimicrobial activity against Moraxella catarrhalis 557; type: functional
[2] = tested on: Pseudomonas aeruginosa; assay: Antimicrobial activity against Pseudomonas aeruginosa 1473; type: functional
[3] = tested on: Haemophilus influenzae; assay: Antimicrobial activity against ampicillin-resistant Haemophilus influenzae 1742; type: functional
[4] = tested on: Klebsiella pneumoniae; assay: Antimicrobial activity against Klebsiella pneumoniae 2239; type: functional
[5] = tested on: Streptococcus pneumoniae; assay: Antimicrobial activity against penicillin-resistant Streptococcus pneumoniae 940; type: functional
[6] = tested on: Staphylococcus aureus; assay: Antimicrobial activity against methicillin-resistant Staphylococcus aureus 1137; type: functional
[7] = tested on: Escherichia coli; assay: Antimicrobial activity against extended spectrum beta-lactamase producing Escherichia coli 2269; type: functional
[8] = tested on: Escherichia coli; assay: Antimicrobial activity against Escherichia coli 25922 QC; type: functional; settings: ATCC25922
[9] = tested on: Staphylococcus aureus; assay: Antimicrobial activity against methicillin-susceptible Staphylococcus aureus 29213; type: functional
[10] = tested on: Serratia marcescens; assay: Antimicrobial activity against Serratia marcescens 1635; type: functional
[11] = tested on: Staphylococcus aureus; assay: Antimicrobial activity against linezolid-resistant methicillin-resistant Staphylococcus aureus 1725; type: functional
[12] = tested on: Haemophilus parainfluenzae; assay: Antimicrobial activity against Haemophilus parainfluenzae 2319; type: functional
[13] = tested on: Streptococcus pneumoniae; assay: Antimicrobial activity against penicillin-susceptible Streptococcus pneumoniae 975; type: functional
[14] = tested on: Staphylococcus aureus; assay: Antimicrobial activity against vancomycin-intermediate Staphylococcus aureus 2012; type: functional
[15] = tested on: Streptococcus pneumoniae; assay: Antimicrobial activity against quinolone-resistant Streptococcus pneumoniae 376; type: functional
[16] = Cytotoxicity against NHDF cells assessed as cell viability measured by change in ATP level after 48 hrs; type: cell-based; settings: human
[17] = tested on: Enterococcus faecium; assay: Antimicrobial activity against vancomycin-resistant Enterococcus faecium 700221 clinical isolate; type: functional
[18] = tested on: Escherichia coli; assay: Antimicrobial activity against Escherichia coli 1411; type: functional
[19] = Cytotoxicity against human Hep G2 cells assessed as cell viability measured by change in ATP level after 48 hrs; type: functional; settings: HepG2, 48 h
[20] = tested on: Staphylococcus aureus; assay: Antimicrobial activity against methicillin-susceptible Staphylococcus aureus 6538; type: functional
[21] = tested on: Staphylococcus aureus; assay: Antimicrobial activity against methicillin-resistant Staphylococcus aureus 43300; type: functional
[22] = tested on: Klebsiella pneumoniae; assay: Antimicrobial activity against ampC beta-lactamase producing multidrug-resistant Klebsiella pneumoniae 2262; type: functional

Row | Structure (SMILES) | MIC [1] [µg/mL] | MIC [2] [µg/mL] | MIC [3] [µg/mL] | MIC [4] [µg/mL] | MIC [5] [µg/mL] | MIC [6] [µg/mL] | MIC [7] [µg/mL] | MIC [8] [µg/mL] | MIC [9] [µg/mL] | MIC [10] [µg/mL] | MIC [11] [µg/mL] | MIC [12] [µg/mL] | MIC [13] [µg/mL] | MIC [14] [µg/mL] | MIC [15] [µg/mL] | CC90 at 48 h [16] [µg/mL] | MIC [17] [µg/mL] | MIC [18] [µg/mL] | MIC [20] [µg/mL] | MIC [21] [µg/mL] | other results
1 | CCCCCCCCCC(=O)N[C@@H](Cc1c[nH]c2ccccc12)C(=O)N[C@H](CC(N)=O)C(=O)N[C@@H](CC(=O)O)C(=O)N[C@@H]1C(=O)NCC(=O)N[C@@H](CCCN)C(=O)N[C@@H](CC(=O)O)C(=O)N[C@H](C)C(=O)N[C@@H](CC(=O)O)C(=O)NCC(=O)N[C@H](CO)C(=O)N[C@@H]([C@H](C)CC(=O)O)C(=O)N[C@@H](CC(=O)c2ccccc2N)C(=O)O[C@@H]1C | 16 (≈ 9.87 µM) | > 64 | > 64 | > 64 | 0.25 (≈ 0.154 µM) | 1 (≈ 0.617 µM) | > 64 | > 64 | 1 (≈ 0.617 µM) | > 64 | 1 (≈ 0.617 µM) | > 64 | 0.25 (≈ 0.154 µM) | 8 (≈ 4.94 µM) | 0.25 (≈ 0.154 µM) | – | – | – | – | – | –
2 | COc1ccc2oc3c(c(=O)c2c1O)C(=O)c1c(ccc2cc4c(c(O)c12)C(=O)N1C(C)(C4)OC(=O)C1(C)CO)C3=O (stereo not drawn) [CITREAMICIN DELTA] | 4 (≈ 7 µM) | > 64 | 1 (≈ 1.75 µM) | > 64 | – | 2 (≈ 3.5 µM) | > 64 | > 64 | 1 (≈ 1.75 µM) | > 64 | 1 (≈ 1.75 µM) | 1 (≈ 1.75 µM) | ≤ 0.06 | 2 (≈ 3.5 µM) | – | 0.3 (≈ 0.525 µM) | ≤ 0.25 | > 128 | ≤ 0.5 | 0.5 (≈ 0.875 µM) | CC90 [19]: 2.4 µg/mL (≈ 4.2 µM)
3 | COc1ccc2oc3c(O)c4c(c(O)c3c(=O)c2c1O)-c1c(cc2c(c1O)C(=O)N1C(C)(C2)OC(=O)C1(C)CO)CC4 (stereo not drawn) [CITREAMICIN EPSILON] | 0.5 (≈ 0.869 µM) | > 32 | > 32 | > 32 | 0.12 (≈ 0.209 µM) | 0.25 (≈ 0.434 µM) | > 32 | > 32 | 0.12 (≈ 0.209 µM) | > 32 | 0.12 (≈ 0.209 µM) | > 32 | 0.25 (≈ 0.434 µM) | 0.25 (≈ 0.434 µM) | 0.25 (≈ 0.434 µM) | 0.1 (≈ 0.174 µM) | 0.5 (≈ 0.869 µM) | > 64 | 0.13 (≈ 0.226 µM) | 0.13 (≈ 0.226 µM) | CC90 [19]: 1 µg/mL (≈ 1.74 µM); MIC [22]: > 32 µg/mL
4 | CC(=O)NC[C@H]1CN(c2ccc(N3CCOCC3)c(F)c2)C(=O)O1 [LINEZOLID] | 4 (≈ 11.9 µM) | > 64 | 8 (≈ 23.7 µM) | > 64 | 0.25 (≈ 0.741 µM) | – | > 64 | > 64 | – | > 64 | – | 16 (≈ 47.4 µM) | – | 1 (≈ 2.96 µM) | – | – | – | – | 0.5 (≈ 1.48 µM) | 1 (≈ 2.96 µM) | –
5 | C[C@@H](O)[C@H]1C(=O)N2C(C(=O)O)=C(S[C@@H]3CN[C@H](C(=O)N(C)C)C3)[C@H](C)[C@H]12 [MEROPENEM] | ≤ 0.004 | 4 (≈ 10.4 µM) | 0.06 (≈ 0.156 µM) | 0.06 (≈ 0.156 µM) | 1 (≈ 2.61 µM) | – | 0.03 (≈ 0.0782 µM) | 0.03 (≈ 0.0782 µM) | 0.25 (≈ 0.652 µM) | 0.06 (≈ 0.156 µM) | 0.25 (≈ 0.652 µM) | 0.03 (≈ 0.0782 µM) | 0.015 (≈ 0.0391 µM) | > 4 | 0.015 (≈ 0.0391 µM) | – | – | – | – | – | MIC [22]: > 64 µg/mL

Reference: ChEMBL document CHEMBL1151720, “Citreamicins with potent gram-positive activity” (J Nat Prod, 2008)
